Values quoted from earlier work as cited in patent publication US5603954A (priority 1995, dated 1997).

Key:
[1] = metabolites appear after dosing in the plasma
[2] = tested on: patients with chronic peripheral arterial disease

CC(=O)CCCCn1c(=O)c2c(ncn2C)n(C)c1=O [pentoxifylline, 3,7-dihydro-3,7-dimethyl-1-(5-oxohexyl)-1H-purine-2,6-dione]
first-pass effect [1]: undergoes a first-pass effect | blood flow to the affected microcirculation [2]: increases the blood flow | tissue oxygenation [2]: enhances tissue oxygenation
